Legend:
citrated whole blood [1] = assay: T2In platelet activity and fibrinolysis measurement with tPA or aprotinin; type: cell-based, human; settings: ellagic acid with CaCl2; tPA 0, 2 or 4 nM or aprotinin control; 65 min
Procedure: The T2Ex or the T2In protocols were also used with the addition of aprotinin (T2Ex-A and T2In-A) respectively. For the intrinsic pathway measurement (T2In), intrinsic activator solution was prepared by mixing ellagic acid stock and CaCl2. For the intrinsic pathway measurement that includes aprotinin (T2In-A), add 41.7 μL of a 1 mg/mL stock of aprotinin to 1 mL intrinsic activator solution. 36.7 μL citrated whole blood that had been warmed to approximately 37° C. for three minutes was added and mixed. 5 μL of intrinsic activator solution with aprotinin that had been warmed to approximately 37° C. for one minute was added. The sample was mixed and read in the T2reader. The clotting time measurement was obtained after 5 minutes and then the platelet activity and fibrinolysis measurements were obtained over the following 60 minutes. In a separate assay the effects of the amounts of activator were tested.
Platelet activity and fibrinolysis measurements for the 3 donor samples in the T2In assay are shown in FIG. 15a-15b. tPA levels of 0 nM, 2 nM or 4 nM were added to citrated whole blood. Blood samples (36.7 μL) were activated by addition of 5 μL ellagic acid solution with CaCl2. T2MR data was collected for 65 min. The addition of tPA cleaves the fibrin mesh of the clot and results in clot dissolution over time. This is detected by T2MR by the change in T2 value of the serum peak (third phase). […]

citrated whole blood [2] = assay: T2In T2MR clotting time, intrinsic pathway activator (ellagic acid); type: cell-based, human
Excerpt: In another embodiment a coagulopathy panel is used with an intrinsic activator such as ellagic acid. The common range of clotting time is often between 100 and 120 seconds for normal blood. However, it can be 22-30 seconds, 30-44 seconds, 44-60 seconds, 60-80 seconds, 80-100 seconds, up to 2 times to 4 times the range of normal T2MR clotting times for the extrinsic activator. The abnormal clotting time ranges are above or below the normal range. The total range easily measured is 8-300 seconds though a measurement up to or beyond 1000 seconds could be performed with modified acquisition. If aprotinin is added in addition to intrinsic activator, clotting times can often be from 110.9-151.0 seconds in normal blood.
The general intrinsic activator protocol is as follows (T2In panel): an intrinsic activator solution was prepared by mixing tissue factor reagent with CaCl2. To 36.7 μL of citrated whole blood (warmed to approximately 37° C. for 3 minutes and mixed) was added 5 μL of the intrinsic activator solution (also been warmed to approximately 37° C. for one minute). The resulting solution was mixed and subjected to T2 measurements for 50 minutes. For a given sample, a clotting time measurement was typically obtained within 5 minutes. Some examples of activators are tissue factor with phospholipids and ellagic acid with phospholipid. The reagents were placed in a tube that was subsequently placed in the magnetic field. Citrated whole blood was added and mixed. The blood was diluted 50%. The T2MR of the sample was measured for 30 minutes.
The T2Ex or the T2In protocols were also used with the addition of aprotinin (T2Ex-A and T2In-A) respectively. For the intrinsic pathway measurement (T2In), intrinsic activator solution was prepared by mixing ellagic acid stock and CaCl2. For the intrinsic pathway measurement that includes aprotinin (T2In-A), add 41.7 μL of a 1 mg/mL stock of aprotinin to 1 mL intrinsic activator solution. 36.7 μL citrated whole blood that had been warmed to approximately 37° C. for three minutes was added and mixed. […] The sample was mixed and read in the T2reader. […]

platelet aggregation = assay: Platelet aggregation by whole blood aggregometry (WBA) or light transmission aggregometry (LTA); type: cell-based, human; settings: titration of CCD
citrated plasma = assay: T2MR PT clotting time in samples from donors on Coumadin therapy; type: in vivo, human
Procedure: All samples were sourced from the coagulation laboratory at a local hospital. Lab protocol was to collect discarded citrated blood samples (venous draw, 1 mL minimum) from patients on Coumadin therapy with both normal and abnormal PT values. Citrated blood samples were stored at RT and within 4-5 hours of the draw time samples were spun down at 1500×g for 15 min to prepare plasma. Plasma samples were stored frozen at −70° C.
For citrated plasma, a tissue factor reagent was prepared by reconstituting the lyophilized Dade® Innovin® (tissue factor) reagent. Citrated plasma (13 μL) was mixed with 27 μL of tissue factor reagent. All reagents and disposables were adequately pre-heated. T2 values were collected with a 1 second dwell time and used to collect the T2 values as a function of time. The T2 vs. time data were collected for 120 successive measurements and fit with a five-parameter logistic fit to calculate the EC50, from which the clotting time was derived. A method comparison against the Stago ST4 system and a precision study was completed with 22 samples from normal donors not on anti-coagulant medications and 50 samples from donors on Coumadin. […] INR (international normalized ratio, a normalized PT value) values were calculated from a pool of normal healthy donors. […] This corresponds to a clotting time value that is prolonged compared to standard therapeutic ranges.

plasma [3] = assay: STAGO plasma prothrombin time (PT); type: biochemical, human; settings: rivaroxaban spiked samples, three donors
Procedure: Samples from three donors were provided. Rivaroxaban spiked citrated whole blood samples were used to generate a range of clotting time measurements. An extrinsic pathway activator, such as tissue factor, was added. The T2MR clotting time (CT) range used was 32-259 seconds, and the STAGO plasma prothrombin time (PT) range was 11-47 seconds. Five replicate T2MR measurements were taken for each clotting time.

citrated whole blood [4] = assay: T2Ex T2MR clotting time, extrinsic pathway activator (tissue factor); type: cell-based, human
Excerpt: In one embodiment a panel is used with an extrinsic activator such as tissue factor. The clotting time T2MR measurement for normal blood can be 30-40 seconds. It can also be 8-12 seconds, 10-20 seconds, 10-40 seconds, 30-40 seconds, 30-50 seconds, 40-60 seconds, 50-60 seconds or 20-60 seconds. The international normalized ratio for normal blood can then be 0.8-1.2, or 0.87-1.13. The abnormal range of T2MR measurement of clotting time is above or below the normal range. The total range easily measured is 8-300 seconds though a measurement up to or beyond 1000 seconds could be performed with modified acquisition. If aprotinin is added in addition to tissue factor, in normal blood the clotting time is often between 27.9 and 41.6 seconds.
The general extrinsic activator protocol was as follows (T2Ex panel): an extrinsic activator solution was prepared by mixing tissue factor reagent with CaCl2. […]
The T2Ex or the T2In protocols were also used with the addition of aprotinin (T2Ex-A and T2In-A) respectively. […] The sample was mixed and read in the T2reader. […]
Rivaroxaban was spiked into citrated blood from normal donors at increasing levels. Aliquots of spiked blood were activated with tissue factor activator solution and clot times determined by T2MR. […]

plasma [5] = assay: STAGO aPTT; type: biochemical, human; settings: rivaroxaban spiked samples, six donors
Procedure: Citrated whole blood samples from six donors were provided and spiked with rivaroxaban to generate a range of clotting times. An activator of the intrinsic coagulation pathway, (e.g. ellagic acid), was added. T2MR clotting time range was between 73-202 seconds, and the STAGO aPTT range was between 29-86 seconds. Five replicate T2MR measurements were taken for each clotting time. The specification desired was between 0.7-5% CV with 100-200 seconds of clotting time and a detection range of 60-450 seconds.

[6] = system: reconstituted blood samples; assay: T2MR % deltaT2 fibrinogen measurement, reconstituted blood activated with ellagic acid; type: cell-based, human
Excerpt: The T2MR based hemostasis assays described herein can be used to discriminate normal from abnormal patient samples for fibrinogen measurements using either an extrinsic or intrinsic pathway activation. […] Citrated whole blood from normal donors was centrifuged and […] removed. Packed red blood cells were washed with fibrinogen depleted plasma. Fibrinogen depleted plasma was spiked with known amounts of fibrinogen; these spiked plasmas were used to reconstitute washed red blood cells to produce blood samples with varying fibrinogen levels. Blood samples were activated with ellagic acid activator solution and clot time and % deltaT2 were measured. Fibrinogen levels in each sample were determined by the Clauss method. […] Low fibrinogen (120 mg/dL) gave an average % deltaT2 of 4, normal level fibrinogen (343 mg/dL) gave an average % deltaT2 of 8.3 and high fibrinogen (583 mg/dL) gave an average % deltaT2 of 10.7.

aprotinin
change in T2 value of the serum peak (third phase) (citrated whole blood [1]): no detected change | clotting time curves (% deltaT2) (citrated whole blood [2]; T2In, 3 donors, different tPA concentrations, with or without aprotinin): appear to overlay | clotting times (citrated whole blood [2]; aprotinin added in addition to intrinsic activator, normal blood): 110.9 to 151.0 s

C=C1[C@@H](C)[C@H]2[C@H](Cc3ccccc3)NC(=O)[C@]23[C@H](OC(C)=O)/C=C/[C@@](C)(O)C(=O)[C@@H](C)C/C=C/[C@H]3[C@@H]1O [CCD, cytochalasin D]
effect on platelet aggregation (platelet aggregation): no reproducible effect

CC(=O)CC(c1ccccc1)c1c(O)c2ccccc2oc1=O (centres unmarked) [Coumadin, warfarin]
clotting times versus normal donors not on therapy (citrated plasma; citrated plasma, citrated blood and fresh whole blood): prolonged clotting times | INR (citrated plasma; patient on Coumadin, hypocoagulable state): 5.3 | T2MR clotting time (citrated plasma; patient on Coumadin, hypocoagulable state, citrated plasma, tissue factor reagent): 51.3 s | INR (citrated plasma; patient undergoing Coumadin therapy but hypercoagulable): 0.8 | T2MR clotting time (citrated plasma; patient undergoing Coumadin therapy but hypercoagulable, citrated plasma): 8.4 s

O=C(NC[C@H]1CN(c2ccc(N3CCOCC3=O)cc2)C(=O)O1)c1ccc(Cl)s1 [rivaroxaban]
STAGO plasma prothrombin time (PT) range (plasma [3]): 11 to 47 s | extension of clot times (citrated whole blood [4]; 800 ng/mL spiked into citrated blood from normal donors, tissue factor activator solution): approximately 80% | T2MR clotting time (CT) range (citrated whole blood [4]; rivaroxaban spiked citrated whole blood, three donors, range over spiked samples (Example 12)): 32 to 259 s | STAGO aPTT range (plasma [5]): 29 to 86 s | T2MR clotting time range (citrated whole blood [2]; rivaroxaban spiked citrated whole blood, six donors): 73 to 202 s

fibrinogen
average % deltaT2 ([6]; high fibrinogen 583 mg/dL): 10.7 | average % deltaT2 ([6]; low fibrinogen 120 mg/dL): 4 | average % deltaT2 ([6]; normal level fibrinogen 343 mg/dL): 8.3
